US20120258975A1, “Potent Small Molecule Inhibitors of Autophagy, and Methods of Use Thereof” (Shanghai Institute of Organic Chemistry, priority 2009, published 2012)

Tests used:
LC3 = LC3 western blotting in MEF cells; type: cell-based, mouse; settings: 4 hours, 10 μM, rapamycin 0.2 μM
Procedure: FIG. 5 depicts results related to showing that active derivatives of MBCQ reduce the levels of LC3II in MEF cells. […] The cell lysates were collected for western blotting using anti-LC3 antibody. B, Electron microscopy confirmation of the autophagy inhibitory effects of C43 (spautin) on MEF cells. MEF cells were treated with vehicle control (1‰ DMSO), and other indicated compounds for 4 h. Rapamycin (0.2 μM) and C43 (spautin) (10 μM). Then the cells were fixed with glutaraldehyde and prepared the sample for EM assay. Bar, 1:11,000. Arrows indicate double and multi-membrane autophagosomic vesicles. N: nucleus.
To confirm the inhibitory activity on autophagy, mouse embryo fibroblasts (MEF) cells were treated with C29, C43 or C71 for 4 hours in the presence or absence of rapamycin and the levels of autophagy were determined by LC3 western blotting. […] (FIG. 5A).

MDCK cells = MDCK cells under glucose-free condition; type: cell-based, canine
Text: Hs578Bst cells, established from normal tissue peripheral to the tumor and is myoepithelial in origin, also were not sensitive to spautin (FIGS. 12C and 12D).

[1] = test system: autophagy (LC3) in pancreas; experiment: Cerulein induced pancreatitis model in rats; type: in vivo; settings: 40 mg/kg intraperitoneally hourly for 4 times with cerulein
Procedure: FIG. 13 depicts results showing the effect of MBCQ and derivatives in vivo. (A) Mice were injected with rapamycin (10 mg/kg) alone as a positive control, or with C43 or MBCQ (40 mg/kg) intraperitoneally every hour for 4 h and then sacrificed at 5 th h. The autophagy levels in liver were analyzed by western blotting using anti-LC3 antibody. (B) C43 reduces the levels of autophagy induced by cerulein. Rats were injected intraperitoneally with cerulein (50 μg/kg) alone or with C43 (40 mg/kg) hourly for 4 times. The rats were sacrificed at one h after the last injection and the pancreas were isolated for western blotting analysis using anti-LC3 and anti-tubulin (as a control).
Since autophagy has been proposed to contribute to the tissue damage in pancreatitis, MBCQ derivatives were tested to see if they could reduce tissue damage induced by cerulein injection, a well-established animal model of pancreatitis (Hashimoto, D., Ohmuraya, M., Hirota, M., Yamamoto, A., Suyama, K., Ida, S., Okumura, Y., Takahashi, E., Kido, H., Araki, K., et al. (2008). Involvement of autophagy in trypsinogen activation within the pancreatic acinar cells. J Cell Biol 181, 1065-1072; and Ohmuraya, M., and Yamamura, K. (2008). Autophagy and acute pancreatitis: a novel autophagy theory for trypsinogen activation. Autophagy 4, 1060-1062). […]

Beclin1 = experiment: Ubiquitination of Beclin1 in 293T cells; type: cell-based
Procedure: FIG. 16 depicts results of experiments showing that spautin promotes the degradation of Beclin1 through proteasomal pathway. […] DMSO (1‰), MBCQ (10 μM), spautin (10 μM), NH4Cl (10 mM), MG132 (5 μM). […] B, 293T cells were transfected with GFP-Beclin1 and HA-Ub expression vectors.
Ubiquitination represents an essential key step in mediating proteasomal degradation. Experiments were therefore run to determine if ubiquitination of Beclin1 is increased in cells treated with C43.

[2] = test system: USP3, USP10, USP13, USP16, USP18; experiment: USP protein levels (western blot)
Procedure: H4 cells were transfected with indicated siRNAs for 72 hrs or treated with rapamycin (0.2 μM) or spautin (10 μM) for 4 hrs, and non-target siRNA (N. T. siRNA) was used as negative control. The cell lysates were harvested and analyzed by western blotting using (Left): antibodies specific for the indicated proteins. Anti-α-tubulin was used as loading controls.

[3] = test system: LC3-GFP (H4-LC3-GFP cells); experiment: Starvation induced autophagy in H4-LC3-GFP cells; type: cell-based; settings: Hanks buffer 1 h; MBCQ 5 μM, 3-MA 10 mM, wortmannin 0.1 μM
Text: FIG. 2 depicts results relating to MBCQ inhibition of autophagy induced by starvation. Quantitative measurement of LC3-GFP spot number per cell (a), spot size per cell (b) and spot intensity per cell (c) using HCS and expressed as % of control.

LC3II = experiment: Endogenous LC3II western blot in H4-LC3, 293T and MEF cells; type: cell-based; settings: MBCQ and rapamycin co-treated versus rapamycin alone
Procedure: To confirm the inhibition of autophagy by MBCQ, H4-LC3 cells, 293T cells and mouse embryonic fibroblast cells were treated with MBCQ and the levels of endogenous LC3II were measured by western blot.

mTOR pathway = experiment: Western blotting of mTOR pathway phosphorylation; type: cell-based
Text: Since MBCQ inhibits autophagy induced by rapamycin and starvation, it was first determined if MBCQ affects the activity of mTOR. […] Thus, it was concluded that MBCQ has no effect for the mTOR pathway or type I PI3 kinase.

[4] = test system: major intracellular organelles; experiment: Markers of intracellular organelles; type: cell-based
Procedure: The effects of MBCQ on early endosomes using immunostaining of EEA1 as a marker, lysosomes using immunostaining of lamp2 as a marker or lysotracker, trans-Golgi using GalT-YFP as a marker was determined. No effect of MBCQ was detected in any of these experiments.

Vps34 complex = target: T1, Vps34 complex (Homo sapiens, UniProt Q8NEB9); experiment: Vps34 complex kinase assay (PtdIns phosphorylation, TLC); type: biochemical; settings: immunoprecipitated HA-Vps34 complex from 293T; wortmannin 10 uM
T1 construct: expressed in transfected cells; host or cells: 293T
T1 sequence (Q8NEB9 whole entry): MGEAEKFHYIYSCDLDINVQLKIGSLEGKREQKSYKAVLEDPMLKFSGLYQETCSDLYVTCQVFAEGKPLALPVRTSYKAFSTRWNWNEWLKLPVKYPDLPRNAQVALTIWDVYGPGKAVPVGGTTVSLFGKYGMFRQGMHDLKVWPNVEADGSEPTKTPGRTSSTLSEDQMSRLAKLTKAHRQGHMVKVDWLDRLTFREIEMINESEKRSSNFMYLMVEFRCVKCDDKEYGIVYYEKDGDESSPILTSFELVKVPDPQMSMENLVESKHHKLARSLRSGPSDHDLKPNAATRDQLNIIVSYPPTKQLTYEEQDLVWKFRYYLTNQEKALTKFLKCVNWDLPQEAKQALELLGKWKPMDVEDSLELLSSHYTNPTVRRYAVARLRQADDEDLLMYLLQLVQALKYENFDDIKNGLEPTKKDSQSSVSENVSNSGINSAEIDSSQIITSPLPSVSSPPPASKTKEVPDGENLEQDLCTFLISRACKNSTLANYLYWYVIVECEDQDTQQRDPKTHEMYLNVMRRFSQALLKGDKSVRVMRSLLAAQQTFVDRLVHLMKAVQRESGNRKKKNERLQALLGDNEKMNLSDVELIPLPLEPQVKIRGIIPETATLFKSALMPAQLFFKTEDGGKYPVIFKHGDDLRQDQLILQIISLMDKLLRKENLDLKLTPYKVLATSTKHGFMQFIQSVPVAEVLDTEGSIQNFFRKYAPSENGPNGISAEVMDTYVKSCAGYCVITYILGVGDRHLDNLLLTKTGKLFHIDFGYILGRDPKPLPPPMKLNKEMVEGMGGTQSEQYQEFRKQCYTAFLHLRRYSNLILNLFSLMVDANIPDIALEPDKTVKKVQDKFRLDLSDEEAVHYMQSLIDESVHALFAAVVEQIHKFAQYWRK
T1 sequence (Q14457 whole entry partner): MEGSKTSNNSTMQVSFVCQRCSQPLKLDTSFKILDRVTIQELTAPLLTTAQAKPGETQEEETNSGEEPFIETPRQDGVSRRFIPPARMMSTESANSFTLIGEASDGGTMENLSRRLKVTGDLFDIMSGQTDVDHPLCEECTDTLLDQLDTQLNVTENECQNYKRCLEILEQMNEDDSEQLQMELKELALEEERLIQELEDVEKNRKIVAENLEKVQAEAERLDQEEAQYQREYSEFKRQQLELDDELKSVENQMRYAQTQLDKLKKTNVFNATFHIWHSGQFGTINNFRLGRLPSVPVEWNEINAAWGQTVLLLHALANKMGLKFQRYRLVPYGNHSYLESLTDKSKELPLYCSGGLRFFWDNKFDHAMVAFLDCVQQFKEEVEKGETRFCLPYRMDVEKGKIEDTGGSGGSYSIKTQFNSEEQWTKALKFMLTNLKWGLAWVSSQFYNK

Row | SMILES | autophagy induced by rapamycin (LC3 western blotting) (LC3) | apoptosis (MDCK cells) | growth suppression (MDCK cells; 10 μM of spautin for 48 hrs) | levels of autophagy induced by cerulein injection (pancreas) [1] | ubiquitination of Beclin1 (Beclin1) | levels of USP13 and USP10 ([2]; 293T cells and Bcap-37 cells) | levels of USP44 ([2]; 293T cells and Bcap-37 cells) | levels of USP3, USP10, USP13, USP16 and USP18 ([2]; H4 cells, 10 μM, 4 hrs) | starvation induced autophagy (LC3-GFP spot number, size, intensity) [3] | levels of LC3II (LC3II) | phosphorylation of GSK-3α/β, AKT (mTOR pathway) | phosphorylation of mTOR and its targets, p70S6K and S6 (mTOR pathway; control or rapamycin treated cells) | early endosomes (EEA1), lysosomes (lamp2, lysotracker), trans-Golgi (GalT-YFP) [4] | phosphorylation of PtdIns by Vps34 complex (Vps34 complex)
1 | Fc1ccc(CNc2ncnc3ccc(F)cc23)cc1 [C43, 6-fluoro-N-(4-fluorobenzyl)quinazolin-4-amine] | inhibited autophagy induced by rapamycin | did not induce apoptosis | ~25% | significantly reduced the levels of autophagy | promoted the ubiquitination of Beclin1 | reduce the levels of USP13 and USP10 | little effect | reduced the levels of these five USPs | – | – | – | – | – | –
2 | Clc1ccc2ncnc(NCc3ccc4c(c3)OCO4)c2c1 [MBCQ] | – | – | – | – | – | – | – | – | significantly reduced | consistently reduced | Nor does MBCQ have any effect | no effect on the phosphorylation of mTOR and its targets | No effect | not a direct inhibitor of Vps34 enzymatic activity
